Measured values as given in patent US10906940B2, “Antimicrobial peptides, pharmaceutical compositions, and methods of use thereof” (priority 2014, dated 2021).
Values after ≈ are worked out from the molar mass of the structure shown. Where a SMILES comes first, the peptide text is derived from it. Bridges are numbered along the chain shown (N, C = ends). [ ]: non-standard residue; d: D form. The star is where a group is joined. Pentadecanoyl = CCCCCCCCCCCCCCC(=O)*; Tridecanoyl = CCCCCCCCCCCCC(=O)*; Undecanoyl = CCCCCCCCCCC(=O)*; dOrn = NCCC[C@@H](N)C(=O)O

Legend:
[1] = test system: E. coli CVM 40147 (vim-2); assay type: cell-based, Escherichia coli
Source text: (§1) The same MIC assay as in Example 6 was used to determine the antimicrobial susceptibility of Compound A, L-form (FIG. 15), and several variants. One variant was Compound A, D-form, with D-Lysine at position 7. Compound B is a variant in the fatty acid chain, with a fatty acid chain composition of C15H29O, and having D-Lys at position 7. Compound C is a variant in the fatty acid chain with a fatty acid chain composition of C11H21O, and having D-Lys at position 7. Variant D is a sequence variant with Phe at position 6 of the cyclic peptide, and having D-Lys at position 7. All variants were chemically synthesized.

[2] = test system: E. coli CVM40146 (vim-1); assay type: cell-based, Escherichia coli
Source text: as §1

[3] = test system: E. coli CVM 40138 (LCR-1); assay type: cell-based, Escherichia coli
Source text: as §1

[4] = test system: E. coli CVM 40136 (tem 52b); assay type: cell-based, Escherichia coli
Source text: as §1

[5] = test system: E. coli CVM 40128 (oxa-7); assay type: cell-based, Escherichia coli
Source text: as §1

[6] = test system: E. coli CVM 40132 (ctx-m-9); assay type: cell-based, Escherichia coli
Source text: as §1

[7] = test system: E. coli CVM 40143 (act-1); assay type: cell-based, Escherichia coli
Source text: as §1

[8] = test system: E. coli CVM 40133 (ctx-m-14); assay type: cell-based, Escherichia coli
Source text: as §1

[9] = test system: E. coli CVM 40134 (ctx-m-15); assay type: cell-based, Escherichia coli
Source text: as §1

[10] = test system: E. coli CVM 15100 (mir1); assay type: cell-based, Escherichia coli
Source text: as §1

[11] = test system: E. coli CVM 40129 (oxa-5); assay type: cell-based, Escherichia coli
Source text: as §1

[12] = test system: E. coli CVM 35778 (ctx-m-2); assay type: cell-based, Escherichia coli
Source text: as §1

[13] = test system: E. coli CVM 40130 (oxa-9); assay type: cell-based, Escherichia coli
Source text: as §1

[14] = test system: E. coli CVM 40126 (oxa-1); assay type: cell-based, Escherichia coli
Source text: as §1

[15] = test system: E. coli CVM 40131 (ctx-m-2); assay type: cell-based, Escherichia coli
Source text: as §1

[16] = test system: E. faecalis ATCC 29212
[17] = test system: P. aeruginosa -02
[18] = test system: Enterobacter cloacae SBJ-9222; settings: SBJ-9222
[19] = test system: Salmonella Newport #17
[20] = test system: E. coli ATCC 25853; settings: ATCC 25853
[21] = test system: P. aeruginosa SBJ-10886
[22] = test system: P. aeruginosa SBJ-10884
[23] = test system: Enterobacter cloacae SBJ-7612; settings: SBJ-7612
[24] = test system: Klebsiella pneumoniae SBJ-9149; settings: SBJ-9149
[25] = test system: P. aeruginosa -01
[26] = test system: P. aeruginosa ATCC-27853; settings: ATCC-27853
[27] = test system: S. aureus ATCC 29213
[28] = test system: carbapenem-resistant (CRE) strains and MRSA strains; assay: Broth microdilution MIC, summary of spectrum; assay type: cell-based
[29] = test system: S. aureus ATCC25923
[30] = test system: E. coli O157: H7 EDL933
[31] = test system: P. aeruginosa -03
[32] = test system: Listeria monocytogenes R2-583
[33] = test system: Enterobacter sakazakii E784
[34] = test system: Klebsiella pneumoniae SBJ-9483; settings: SBJ-9483
[35] = test system: Klebsiella pneumoniae SBJ-9388; settings: SBJ-9388

For `CCCCCCCCCCCCC(=O)N[C@H](CCCN)C(=O)N[C@H](C(=O)N[C@@H]1C(=O)N[C@H](CCCN)C(=O)N[C@@H](CO)C(=O)N[C@@H](Cc2ccc(O)cc2)C(=O)N[C@H](CCCCN)C(=O)N[C@H](CO)C(=O)N[C@@H]([C@@H](C)CC)C(=O)N2CCC[C@H]2C(=O)N[C@@H]([C@@H](C)CC)C(=O)N2CCC[C@H]2C(=O)N[C@@H]([C@@H](C)CC)C(=O)O[C@@H]1C)C(C)C` [Compound A D-form] (Tridecanoyl-[dOrn]VT[dOrn]SY[dK][dS]IPIPI; ester 3-C), the MIC [1] was 16 µg/mL (≈ 9.85 µM), the MIC [2] was 8 µg/mL (≈ 4.93 µM) and the MIC [3] was 8 µg/mL (≈ 4.93 µM). The MIC [4] was 16 µg/mL (≈ 9.85 µM), the MIC [5] was 8 µg/mL (≈ 4.93 µM) and the MIC [6] was 8 µg/mL (≈ 4.93 µM). The MIC [7] was 8 µg/mL (≈ 4.93 µM), the MIC [8] was 16 µg/mL (≈ 9.85 µM) and the MIC [9] was 8 µg/mL (≈ 4.93 µM). It also gave an MIC [10] of 8 µg/mL (≈ 4.93 µM), an MIC [11] of 8 µg/mL (≈ 4.93 µM) and an MIC [12] of 8 µg/mL (≈ 4.93 µM). It also gave an MIC [13] of 8 µg/mL (≈ 4.93 µM), an MIC [14] of 8 µg/mL (≈ 4.93 µM) and an MIC [15] of 8 µg/mL (≈ 4.93 µM).

For `CCCCCCCCCCCCCCC(=O)N[C@H](CCCN)C(=O)N[C@H](C(=O)N[C@@H]1C(=O)N[C@H](CCCN)C(=O)N[C@@H](CO)C(=O)N[C@@H](Cc2ccc(O)cc2)C(=O)N[C@H](CCCCN)C(=O)N[C@H](CO)C(=O)N[C@@H]([C@@H](C)CC)C(=O)N2CCC[C@H]2C(=O)N[C@@H]([C@@H](C)CC)C(=O)N2CCC[C@H]2C(=O)N[C@@H]([C@@H](C)CC)C(=O)O[C@@H]1C)C(C)C` [Compound B] (Pentadecanoyl-[dOrn]VT[dOrn]SY[dK][dS]IPIPI; ester 3-C; N-terminus assumed), the MIC [1] was 16 µg/mL (≈ 9.68 µM), the MIC [2] was 8 µg/mL (≈ 4.84 µM) and the MIC [3] was 8 µg/mL (≈ 4.84 µM). For the same compound, the MIC [4] was 8 µg/mL (≈ 4.84 µM), the MIC [5] was 8 µg/mL (≈ 4.84 µM) and the MIC [6] was 16 µg/mL (≈ 9.68 µM). For the same compound, the MIC [7] was 16 µg/mL (≈ 9.68 µM), the MIC [8] was 16 µg/mL (≈ 9.68 µM) and the MIC [9] was 8 µg/mL (≈ 4.84 µM). The MIC [10] was 16 µg/mL (≈ 9.68 µM), the MIC [11] was 8 µg/mL (≈ 4.84 µM) and the MIC [12] was 32 µg/mL (≈ 19.4 µM). It also gave an MIC [13] of 8 µg/mL (≈ 4.84 µM), an MIC [14] of 4 µg/mL (≈ 2.42 µM) and an MIC [15] of 8 µg/mL (≈ 4.84 µM).

In the case of `CCCCCCCCCCCCC(=O)N[C@H](CCCN)C(=O)N[C@H](C(=O)N[C@@H]1C(=O)N[C@H](CCCN)C(=O)N[C@@H](CO)C(=O)N[C@@H](Cc2ccc(O)cc2)C(=O)N[C@@H](CCCCN)C(=O)N[C@H](CO)C(=O)N[C@@H]([C@@H](C)CC)C(=O)N2CCC[C@H]2C(=O)N[C@@H]([C@@H](C)CC)C(=O)N2CCC[C@H]2C(=O)N[C@@H]([C@@H](C)CC)C(=O)O[C@@H]1C)C(C)C` [Compound A L-form] (Tridecanoyl-[dOrn]VT[dOrn]SYK[dS]IPIPI; ester 3-C), the MIC [16] is reported as 4 µg/mL (≈ 2.46 µM), the MIC [17] is reported as 8 µg/mL (≈ 4.93 µM) and the MIC [18] is reported as 8 µg/mL (≈ 4.93 µM). It also gave an MIC [19] of 16 µg/mL (≈ 9.85 µM), an MIC [20] of 4 µg/mL (≈ 2.46 µM) and an MIC [21] of 4 µg/mL (≈ 2.46 µM). For the same compound, the MIC [22] was 4 µg/mL (≈ 2.46 µM), the MIC [23] was 4 µg/mL (≈ 2.46 µM) and the MIC [1] was 16 µg/mL (≈ 9.85 µM). It also gave an MIC [2] of 8 µg/mL (≈ 4.93 µM), an MIC [3] of 8 µg/mL (≈ 4.93 µM) and an MIC [4] of 8 µg/mL (≈ 4.93 µM). For the same compound, the MIC [5] was 8 µg/mL (≈ 4.93 µM), the MIC [6] was 8 µg/mL (≈ 4.93 µM) and the MIC [7] was 8 µg/mL (≈ 4.93 µM). The MIC [8] was 8 µg/mL (≈ 4.93 µM), the MIC [9] was 8 µg/mL (≈ 4.93 µM) and the MIC [10] was 8 µg/mL (≈ 4.93 µM). It also gave an MIC [11] of 4 µg/mL (≈ 2.46 µM), an MIC [12] of 8 µg/mL (≈ 4.93 µM) and an MIC [13] of 8 µg/mL (≈ 4.93 µM). The MIC [14] was 4 µg/mL (≈ 2.46 µM), the MIC [15] was 4 µg/mL (≈ 2.46 µM) and the MIC [24] was 4 µg/mL (≈ 2.46 µM). The MIC [25] was 8 µg/mL (≈ 4.93 µM), the MIC [26] was 8 µg/mL (≈ 4.93 µM) and the MIC [27] was 4 µg/mL (≈ 2.46 µM). The “sensitivity of bacteria compared with paenibacterin of US2013/0164317” value ([28]; comparison in words) was “much greater sensitivity”, the “activity against CRE strains and MRSA strains” value ([28]; summary of Table 6) was “very potent activity” and the MIC [29] was 2 µg/mL (≈ 1.23 µM). The MIC [30] was 4 µg/mL (≈ 2.46 µM), the MIC [31] was 8 µg/mL (≈ 4.93 µM) and the MIC [32] was 2 µg/mL (≈ 1.23 µM). It also gave an MIC [33] of 8 µg/mL (≈ 4.93 µM), an MIC [34] of 4 µg/mL (≈ 2.46 µM) and an MIC [35] of 4 µg/mL (≈ 2.46 µM).

Work on `CCCCCCCCCCC(=O)N[C@H](CCCN)C(=O)N[C@H](C(=O)N[C@@H]1C(=O)N[C@H](CCCN)C(=O)N[C@@H](CO)C(=O)N[C@@H](Cc2ccc(O)cc2)C(=O)N[C@H](CCCCN)C(=O)N[C@H](CO)C(=O)N[C@@H]([C@@H](C)CC)C(=O)N2CCC[C@H]2C(=O)N[C@@H]([C@@H](C)CC)C(=O)N2CCC[C@H]2C(=O)N[C@@H]([C@@H](C)CC)C(=O)O[C@@H]1C)C(C)C` [Compound C] (Undecanoyl-[dOrn]VT[dOrn]SY[dK][dS]IPIPI; ester 3-C; N-terminus assumed) yielded an MIC [1] of 16 µg/mL (≈ 10 µM), an MIC [2] of 8 µg/mL (≈ 5.01 µM) and an MIC [3] of 8 µg/mL (≈ 5.01 µM). The MIC [4] was 8 µg/mL (≈ 5.01 µM), the MIC [5] was 8 µg/mL (≈ 5.01 µM) and the MIC [6] was 8 µg/mL (≈ 5.01 µM). The MIC [7] was 8 µg/mL (≈ 5.01 µM), the MIC [8] was 8 µg/mL (≈ 5.01 µM) and the MIC [9] was 8 µg/mL (≈ 5.01 µM). It also gave an MIC [10] of 8 µg/mL (≈ 5.01 µM), an MIC [11] of 8 µg/mL (≈ 5.01 µM) and an MIC [12] of 16 µg/mL (≈ 10 µM). The MIC [13] was 8 µg/mL (≈ 5.01 µM), the MIC [14] was 8 µg/mL (≈ 5.01 µM) and the MIC [15] was 8 µg/mL (≈ 5.01 µM).

`CCCCCCCCCCCCC(=O)N[C@H](CCCN)C(=O)N[C@H](C(=O)N[C@@H]1C(=O)N[C@H](CCCN)C(=O)N[C@@H](CO)C(=O)N[C@@H](Cc2ccccc2)C(=O)N[C@H](CCCCN)C(=O)N[C@H](CO)C(=O)N[C@@H]([C@@H](C)CC)C(=O)N2CCC[C@H]2C(=O)N[C@@H]([C@@H](C)CC)C(=O)N2CCC[C@H]2C(=O)N[C@@H]([C@@H](C)CC)C(=O)O[C@@H]1C)C(C)C` [Variant D] (Tridecanoyl-[dOrn]VT[dOrn]SF[dK][dS]IPIPI; ester 3-C; N-terminus assumed) showed an MIC [1] of 16 µg/mL (≈ 9.95 µM), an MIC [2] of 8 µg/mL (≈ 4.97 µM) and an MIC [3] of 8 µg/mL (≈ 4.97 µM). It also gave an MIC [4] of 16 µg/mL (≈ 9.95 µM), an MIC [5] of 8 µg/mL (≈ 4.97 µM) and an MIC [6] of 8 µg/mL (≈ 4.97 µM). It also gave an MIC [7] of 16 µg/mL (≈ 9.95 µM), an MIC [8] of 8 µg/mL (≈ 4.97 µM) and an MIC [9] of 8 µg/mL (≈ 4.97 µM). The MIC [10] was 8 µg/mL (≈ 4.97 µM), the MIC [11] was 8 µg/mL (≈ 4.97 µM) and the MIC [12] was 16 µg/mL (≈ 9.95 µM). The MIC [13] was 8 µg/mL (≈ 4.97 µM), the MIC [14] was 8 µg/mL (≈ 4.97 µM) and the MIC [15] was 8 µg/mL (≈ 4.97 µM).
